# In patent US20230065953A1, “NOVEL HETEROARYL-TRIAZOLE COMPOUNDS AS PESTICIDES” (Bayer Aktiengesellschaft, priority 2019, published 2023):
# What was measured:
# Type in all cases: in vivo
# [1] = tested on: Rhipicephalus microplus larvae (strain Parkhurst, resistant against synthetic pyrethroids); experiment: Rhipicephalus (Boophilus) microplus in-vitro contact test, larval cattle tick; settings: 5 μg/cm^2 (=500 g/ha), after 48 hours, read-out: efficacy (larvae dead or moribund)
# Experimental: Rhipicephalus (Boophilus) Microplus—In-Vitro Contact Tests Larval Cattle Tick (Strain Parkhurst, Resistant Against Synthetic Pyrethroids)
# 9 mg compound is solved in 1 mL acetone and diluted with acetone to the desired concentration. 250 μL of the test solution is filled in 25 mL glass test tubes and homogeneously distributed on the inner walls by rotation and tilting on a shaking device (2 h at 30 rpm). With a compound concentration of 900 ppm, an inner surface of 44.7 cm^2 and a homogeneous distribution, a dose of 5 μg/cm^2 is achieved.
# After the solvent has evaporated, each test tube is filled with 20-50 cattle tick larvae (Rhipicephalus microplus), closed with a perforated lid and incubated in a horizontal position at 85% relative humidity and 27° C. in an incubator. After 48 hours efficacy is determined. The larvae are patted on the ground of the tubes and negative geotactic behavior is recorded.
# An efficacy of 100% means all larvae are dead or moribund; 0% means no larvae are dead or moribund.
# [2] = tested on: adult engorged female ticks (Rhipicephalus microplus); experiment: Rhipicephalus (Boophilus) microplus injection test; settings: 168 h, 4 μg/animal, egg deposition after 7 days, read-out: efficacy (infertile eggs)
# Experimental: Rhipicephalus (Boophilus) Microplus—Injection Test
# (§1) Solvent: dimethyl sulfoxide
# To produce a suitable preparation of active compound, 10 mg of active compound are dissolved in 0.5 mL solvent, and the concentrate is diluted with solvent to the desired concentration.
# Five adult engorged female ticks (Rhipicephalus microplus) are injected with 1 μL compound solution into the abdomen. The ticks are transferred into replica plates and incubated in a climate chamber.
# After 7 days egg deposition of fertile eggs is monitored. Eggs where fertility is not visible are stored in a climate chamber till hatching after about 42 days. An efficacy of 100% means all eggs are infertile; 0% means all eggs are fertile.
# [3] = tested on: adult unfed cat fleas (Ctenocephalides felis); experiment: Ctenocephalides felis oral test; settings: 48 h
# Experimental: Ctenocephalides felis—Oral Test
# as §1
# To produce a suitable preparation of active compound, 10 mg of active compound are dissolved in 0.5 mL solvent, and the concentrate is diluted with cattle blood to the desired concentration.
# Approximately 20 adult unfed cat fleas (Ctenocephalides felis) are placed in flea chambers. The blood chamber, sealed with parafilm on the bottom, are filled with cattle blood supplied with compound solution and placed on the gauze covered top of the flea chamber, so that the fleas are able to suck the blood. The blood chamber is heated to 37° C. whereas the flea chamber is kept at room temperature.
# After 2 days mortality in % is determined. 100% means all the fleas have been killed; 0% means none of the fleas have been killed.
# [4] = tested on: larvae of the banded cucumber beetle (Diabrotica balteata); experiment: Diabrotica balteata spray test; settings: 168 h, 100 g/ha (=32 μg/well), wheat seeds, after 7 days, read-out: efficacy (seedling growth)
# Experimental: Diabrotica Balteata—Spray Test
# • Solvent: 78.0 parts by weight of acetone • 1.5 parts by weight of dimethylformamide • Emulsifier: alkylarylpolyglycol ether
# Further test concentrations are prepared by dilution with emulsifier containing water.
# Soaked wheat seeds (Triticum aestivum) are placed in a multiple well plate filled with agar and some water and are incubated for 1 day to germinate (5 seeds per well). The germinated wheat seeds are sprayed with a test solution containing the desired concentration of the active ingredient. Afterwards each unit is infected with 10-20 larvae of the banded cucumber beetle (Diabrotica balteata).
# After 7 days efficacy in % is determined.
# [5] = tested on: fall armyworm larvae (Spodoptera frugiperda); experiment: Spodoptera frugiperda spray test (maize leaf sections); settings: 168 h
# Experimental: Spodoptera frugiperda—Spray Test • Solvent: 78.0 parts by weight acetone • 1.5 parts by weight dimethylformamide • Emulsifier: alkylarylpolyglycol ether
# (§2) To produce a suitable preparation of active compound, 1 part by weight of active compound is mixed with the stated amount of solvents and is diluted with water, containing an emulsifier concentration of 1000 ppm, to the desired concentration. Further test concentrations are prepared by dilution with emulsifier containing water.
# Maize (Zea mays) leaf sections are sprayed with a preparation of the active ingredient of the desired concentration. Once dry, the leaf sections are infested with fall armyworm larvae (Spodoptera frugiperda).
# After 7 days mortality in % is determined. 100% means all caterpillars have been killed and 0% means none of the caterpillars have been killed.
# [6] = tested on: adult flies Musca domestica strain WHO-N; experiment: Musca domestica test (MUSCDO surface treatment & contact assay); settings: surface concentration 20 mg/m^2, 30 min exposure, 24 hours after contact, read-out: efficacy (mortality)
# Experimental: Musca domestica Test (MUSCDO Surface Treatment & Contact Assay) • Solvent: Aceton+2000 ppm rapeseed oil methyl ester (RME)
# In order to produce a sufficient, active ingredient containing solution it is necessary to solve the test compound in the solvent-mix (acetone at 2 mg/ml/RME 2000 ppm). This solution is pipetted onto a glazed tile and after evaporation of the acetone, adult flies of the species Musca domestica strain WHO-N are placed onto the dried surface. The exposure time is 30 minutes.
# Mortality in percent (%) is determined 24 hours after contact of the insects to the treated surface. 100% mortality means that all tested insects are dead, whereas 0% means that no insect died.
# [7] = tested on: green peach aphid (Myzus persicae); experiment: Myzus persicae oral test; settings: 120 h
# Experimental: Myzus persicae—oral test • Solvent: 100 parts by weight acetone
# To produce a suitable preparation of active compound, 1 part by weight of active compound is mixed with the stated amount of solvent, and the concentrate is diluted with water to the desired concentration. 50 μL compound solution is filled in microtiter plates and 150 μL IPL41 insect medium (33%+15% sugar) is added to obtain a total volume of 200 μL per well. Afterwards the plates are sealed with parafilm through which a mixed population of the green peach aphid (Myzus persicae) can suck on the compound preparation.
# (§3) After 5 days mortality in % is determined. 100% means all aphids have been killed and 0% means none of the aphids have been killed.
# [8] = tested on: green peach aphid (Myzus persicae); experiment: Myzus persicae spray test; settings: foliar, 120 h, Chinese cabbage leaf disks, after 5 days
# Experimental: Myzus persicae—Spray Test • Solvent: 78.0 parts by weight acetone • 1.5 parts by weight dimethylformamide • Emulsifier: alkylarylpolyglycol ether
# as §2
# Chinese cabbage (Brassica pekinensis) leaf disks infected with all instars of the green peach aphid (Myzus persicae), are sprayed with a preparation of the active ingredient of the desired concentration.
# as §3
# [9] = tested on: larvae of the southern green stink bug (Nezara viridula); experiment: Nezara viridula spray test; settings: in Hordeum vulgare, 96 h
# Experimental: Nezara viridula—Spray Test • Solvent: 78.0 parts by weight of acetone • 1.5 parts by weight of dimethylformamide • Emulsifier: alkylarylpolyglycol ether
# as §2, with “solvent,” for “solvents”, “and the concentrate” for “and”
# Barley plants (Hordeum vulgare) are sprayed with a test solution containing the desired concentration of the active ingredient and are infested with larvae of the southern green stink bug (Nezara viridula).
# After 4 days mortality in % is determined. 100% means all the stink bugs have been killed; 0% means none of the stink bugs have been killed.
Compound,pest or weed control at 5 µg/cm2 [1] [%],pest or weed control at 0.004 mg [2] [%],mortality at 100 ppm [3] [%],"pest or weed control at 32 µg/disc, 100 g/ha [4] [%]",mortality at 100 g/ha [5] [%],mortality at 20 mg/m2 [6] [%],mortality at 4 ppm [7] [%],mortality at 100 g/ha [8] [%],mortality at 100 g/ha [9] [%],mortality at 500 g/ha [9] [%]
CC(NC(=O)c1cc(Cl)cc(S(F)(F)(F)(F)F)c1)c1ncnn1-c1ncc(C#N)s1 (centres unmarked) [I-32],90,100,100,100,100,–,–,–,–,–
C[C@H](NC(=O)c1cc(Cl)cc(Br)c1)c1ncnn1-c1ncc(C#N)s1 [I-59],–,–,–,100,100,80 to 100,–,–,–,–
CC(NC(=O)c1cc(Br)cc(Br)c1)c1ncnn1-c1ncc(C#N)s1 (centres unmarked) [I-27],–,100,100,100,–,–,–,–,–,–
Cc1nc([C@H](C)NC(=O)c2cc(Cl)cc(S(=O)(=O)C3CC3)c2)n(-c2ncc(C(=O)N(C)CC#N)s2)n1 [I-74],–,–,–,–,–,–,100,90,–,–
Cc1nc([C@H](C)NC(=O)c2cc(C(F)(F)F)cc(S(C)(=O)=O)c2)n(-c2ncc(C(=O)N(C)CC#N)s2)n1 [I-84],80,100,100,100,–,–,100,–,100,–
C[C@H](NC(=O)c1cc(C(F)(F)F)cc(S(C)(=O)=O)c1)c1nc(C2CC2)nn1-c1ncc(C#N)s1 [I-103],–,–,–,100,100,80 to 100,–,–,–,90
C[C@H](NC(=O)c1cc(Cl)cc(S(=O)(=O)C2CC2)c1)c1nc(C2CC2)nn1-c1ncc(C#N)s1 [I-42],–,–,–,100,100,–,100,–,–,–
Cc1nc([C@H](C)NC(=O)c2cncc(C(F)(F)F)c2)n(-c2ncc(C(=O)N(C)CC#N)s2)n1 [I-73],100,–,–,–,–,–,100,90,–,–
Cc1nc([C@H](C)NC(=O)c2cc(Cl)cc(C(F)(F)F)c2)n(-c2ncc(C(=O)NC3CC3)s2)n1 [I-66],100,100,–,100,100,–,100,90,–,–
"C[C@H](NC(=O)c1cc(Cl)cc(S(C)(=O)=O)c1)c1nc(C2CC2)nn1-c1ncc(C#N)s1 [I-40, 3-chloro-N-{(1S)-1-[1-(5-cyano-1,3-thiazol-2-yl)-3-cyclopropyl-1H-1,2,4-triazol-5-yl]ethyl}-5-(methylsulfonyl)benzamide]",–,–,–,80,100,–,90,–,–,–
C[C@H](NC(=O)c1cc(Cl)cc(S(=O)(=O)C2CC2)c1)c1ncnn1-c1ncc(C#N)s1 [I-46],–,–,–,100,100,–,–,90,–,100
CNC(=O)c1cnc(-n2ncnc2[C@H](C)NC(=O)c2cc(Cl)cc(S(=O)(=O)C(F)F)c2)s1 [I-114],–,–,–,100,100,–,–,90,100,100
CC(NC(=O)c1cc(OC(F)F)cc(C(F)F)c1)c1ncnn1-c1ncc(C#N)s1 (centres unmarked) [I-34],90,100,100,100,100,–,100,–,–,–
Cc1nc([C@H](C)NC(=O)c2cc(Cl)cc(S(C)(=O)=O)c2)n(-c2ncc(C(=O)N(C)CC#N)s2)n1 [I-79],–,–,–,–,–,–,100,–,–,–
CC(NC(=O)c1cc(OC(F)F)cc(C2CC2)c1)c1ncnn1-c1ncc(C#N)s1 (centres unmarked) [I-35],100,100,100,100,100,–,100,90,–,–
CC(NC(=O)c1cc(Br)cc(I)c1)c1ncnn1-c1ncc(C#N)s1 (centres unmarked) [I-29],90,100,100,–,–,–,–,–,–,–
Cc1nc([C@H](C)NC(=O)c2cc(C#N)cc(C(F)(F)F)c2)n(-c2ncc(C#N)s2)n1 [I-16],100,100,100,100,100,–,–,–,–,–
Cc1nc([C@H](C)NC(=O)c2cc(Cl)cc(S(C)(=O)=O)c2)n(-c2ncc(C(=O)N(C)C)s2)n1 [I-78],–,–,–,–,–,–,100,–,–,–
C[C@H](NC(=O)c1cc(OC(F)F)cc(OC(F)(F)F)c1)c1ncnn1-c1ncc(C#N)s1 [I-100],–,–,–,100,100,–,–,90,100,100
Cc1nc([C@H](C)NC(=O)c2cc(Cl)cc(C(F)(F)F)c2)n(-c2ncc(C(=O)NCC3CC3)s2)n1 [I-67],100,100,–,100,100,–,100,–,–,–
Cc1nc([C@H](C)NC(=O)c2cc(Cl)cc(I)c2)n(-c2ncc(C(=O)N(C)CC#N)s2)n1 [I-81],100,–,–,100,100,–,100,–,–,–
CNC(=O)c1cnc(-n2ncnc2[C@H](C)NC(=O)c2cc(OC(F)F)cc(OC(F)F)c2)s1 [I-112],–,–,–,100,100,–,–,100,100,100
